Measured values taken from patent US12054447B2, “PCNA inhibitors” (City of Hope, priority 2015, dated 2024).

These compounds were tested on SK-N-AS (assay: Cell growth, CellTitor-Glo assay, 72 h). Details: Homo sapiens.
Type: cell-based
Procedure: (§1) The human NB cell lines, SK-N-DZ, SK-N-BE(2)c, SK-N-AS, and LAN-5 obtained from the American Type Culture Collection (Rockville, MD), were cultured in DMEM with 10% fetal bovine serum (FBS), 100 units/ml penicillin, and 100 μg/ml streptomycin in the presence of 5% CO2 at 37° C. Human PBMCs from a healthy donor were purchased from Sanguine BioSciences (Valencia, CA) and grown in RPMI1640 with 10% FBS, 100 units/ml penicillin, 100 μg/ml streptomycin, and 10 ng/ml IL-2 in the presence of 5% CO2 at 37° C. Human embryonic progenitor cell line 7SM0032 was acquired from Millipore (Billerica, MA) and grown in the hEPM-1 Media Kit purchased from the same company. The plasmid pCBASce expresses the rare cutting I-SceI meganuclease. The U20S-derived cell lines, DR-GFP and EJ5-GFP, each contain a stably transfected reporter gene for DSB repair mediated by HR and end joining (EJ), respectively. These cell lines were cultured in DMEM medium with 10% FBS at 37° C. in the presence of 5% CO2.
(§2) To measure the effect of the compounds on cell growth, cells were seeded at 3×10^4/ml into a 96-well plate. Once attached, cells were treated with various concentrations of AOH1160 for 72 h. Cell growth was measured by the CellTitor-Glo assay (Promega, Madison, WI) according to the manufacturer's instructions. To measure apoptosis, cells were seeded at 1×10^5/ml onto a chamber slide. Once attached, cells were treated with the 500 nM AOH1160 for 24 h. Cells were fixed and analyzed by a TUNEL assay using the TMR red in situ cell death detection kit (Roche Diagnostics, Indianapolis, IN).

Structure (SMILES) | IC50
O=C(CNC(=O)c1cncc2ccccc12)Nc1cccc(Oc2ccncc2)c1 [#1176] | > 30 µM
O=C(CNC(=O)c1cccc2ccccc12)Nc1cccc(Oc2ccncc2)c1 [#1161] | 21.6 µM
O=C(CNC(=O)c1cccc2ccccc12)Nc1ccccc1Oc1ccncc1 [#1162] | > 50 µM
O=C(CNC(=O)c1cncc2ccccc12)Nc1ccccc1Oc1ccccc1 [#1175] | > 30 µM
O=C(CNC(=O)c1cccc2ccccc12)Nc1ccc(Oc2ccncc2)cc1 [#1178] | 1.1 µM
O=C(CNC(=O)c1nccc2ccccc12)Nc1ccccc1Oc1ccccc1 [#1165] | 35 µM
O=C(CNC(=O)c1nccc2ccccc12)Nc1cccc(Oc2ccncc2)c1 [#1166] | > 30 µM

Second part, the compound after the results:

IC50 | Structure (SMILES)
> 30 µM | O=C(CNC(=O)c1cncc2ccccc12)Nc1ccc(Oc2ccncc2)cc1 [AOH1180]
> 30 µM | O=C(CNC(=O)c1nccc2ccccc12)Nc1ccc(Oc2ccncc2)cc1 [AOH1179]
0.185 µM | O=C(CNC(=O)c1cccc2ccccc12)Nc1ccc(Cl)cc1Oc1ccccc1 [PCNA4]

These compounds were tested on SK-N-BE(2)c (assay: Cell growth, CellTitor-Glo assay, 72 h). Details: Homo sapiens.
Type: cell-based
Procedure: as §1, §2

IC50 | Structure (SMILES)
0.5 µM | O=C(CNC(=O)c1cccc2ccccc12)Nc1ccc(Cl)cc1Oc1ccccc1 [PCNA4]

These compounds were tested on SK-N-DZ (assay: Cell growth, CellTitor-Glo assay, 72 h). Details: Homo sapiens.
Type: cell-based
Procedure: as §1, §2

IC50 | Structure (SMILES)
0.447 µM | O=C(CNC(=O)c1cccc2ccccc12)Nc1ccc(Cl)cc1Oc1ccccc1 [PCNA4]

These compounds were tested on 7SM0032 (assay: Cell growth, CellTitor-Glo assay, 72 h). Details: human neural crest stem cells (7SM0032).
Type: cell-based, human
Procedure: as §1, §2

Structure (SMILES) | IC50
O=C(CNC(=O)c1cccc2ccccc12)Nc1ccccc1Cc1ccccc1 [AOH39, N-(2-((2-benzylphenyl)amino)-2-oxoethyl)-1-naphthamide, reference compound] | ~100 µM

These compounds were tested on PBMC (assay: Cell growth, CellTitor-Glo assay, 72 h). Details: Homo sapiens; PBMC (non-malignant).
Type: cell-based, human
Procedure: as §1, §2

Structure (SMILES) | IC50
O=C(CNC(=O)c1cccc2ccccc12)Nc1ccc(Cl)cc1Oc1ccccc1 [PCNA4] | > 20 µM

Same assay, conditions: human peripheral blood mononuclear cells (PBMC)

Structure (SMILES) | IC50
O=C(CNC(=O)c1cccc2ccccc12)Nc1ccccc1Cc1ccccc1 [AOH39, N-(2-((2-benzylphenyl)amino)-2-oxoethyl)-1-naphthamide, reference compound] | 15.4 µM

What follows are compounds tested on NB cell lines (assay: Cell viability assay on NB cell lines). Details: Homo sapiens; multiple NB cell lines; read-out: IC50 range over NB cell lines.
Type: cell-based, human
Procedure: as §2
To identify small molecule compounds that target the PCNA and FEN1 interface, we started with known crystal structures of the PCNA/FEN1 complex that are available from the RCSB protein database. To improve the likelihood of identifying novel small molecules that specifically target caPCNA, we focused our virtual screen on the binding pocket in PCNA delineated by residues L126 and Y133 and screened databases consisting of more than 6.8 million chemical structures available at the AMRI. A set of 57 compounds identified by the virtual screen was acquired and further tested in a cell viability assay. A compound (AOH39) was selected for further development due to its anti-cancer activity and selectivity.

Structure (SMILES) | IC50
O=C(CNC(=O)c1cccc2ccccc12)Nc1ccccc1Cc1ccccc1 [AOH39, N-(2-((2-benzylphenyl)amino)-2-oxoethyl)-1-naphthamide, reference compound] | 1.3 to 2.8 µM

Each compound was assayed on neuroblastoma cell lines (assay: IC50 in Table 3, cell line not stated). Details: Homo sapiens.
Type: cell-based
From the text: In addition numerous analogs related to AOH1160 were screened in numerous neuroblastoma cell lines for anti-cancer activity (Table 2). AOH1160 was screened for anti-cancer activity in additional cancer cell lines besides neuroblastoma (Table 3).

Structure (SMILES) | IC50
O=C(CNC(=O)c1cccc2ccccc12)Nc1cccc(Oc2ccncc2)c1 [#1161] | 21.6 µM
O=C(CNC(=O)c1cccc2ccccc12)Nc1ccccc1Oc1ccncc1 [#1162] | > 50 µM
O=C(CNC(=O)c1cncc2ccccc12)Nc1ccccc1Oc1ccccc1 [#1175] | > 30 µM
O=C(CNC(=O)c1cncc2ccccc12)Nc1ccccc1Oc1ccncc1 [#1177] | > 30 µM
O=C(CNC(=O)c1cccc2ccccc12)Nc1ccc(Oc2ccncc2)cc1 [#1178] | 1.1 µM
O=C(CNC(=O)c1nccc2ccccc12)Nc1ccccc1Oc1ccncc1 [#1167] | 4.2 µM
O=C(CNC(=O)c1nccc2ccccc12)Nc1ccccc1Oc1ccccc1 [#1165] | 35 µM
O=C(CNC(=O)c1nccc2ccccc12)Nc1cccc(Oc2ccncc2)c1 [#1166] | 34 µM

The remaining lines, values ahead:

IC50 | Structure (SMILES)
> 30 µM | O=C(CNC(=O)c1cncc2ccccc12)Nc1ccc(Oc2ccncc2)cc1 [AOH1180]
> 30 µM | O=C(CNC(=O)c1nccc2ccccc12)Nc1ccc(Oc2ccncc2)cc1 [AOH1179]
